Test results published in patent US20060008512A1, “Composition and methods for improved animal performance” (priority 2004, published 2006).
Like-named read-outs stand apart in the source and are kept apart here. Marks after values point to notes of the source that are not given here.

Tests used:
[1] = system: Hy-Line W-36 White Leghorn hens; conditions: for Ovary Weight per hen / Oviduct Weight per hen: day 34
Description: Experiment 3. […] The photoperiod serves as the primary environmental signal that regulates reproductive function in many avian species. Increasing the photoperiod promotes maturation of the gonads and reproductive tract, whereas reducing the photoperiod causes the gonads and reproductive tract to regress and molting to occur.

laying turkeys = conditions: 2 mg L-thyroxine/hen/day i.m.; cited from earlier work
[2] = system: Hy-Line W-36 White Leghorn hens
Description: Experiment 1. […] While acknowledging that injecting individual hens is commercially impractical (Webster, 2003), nevertheless an initial study was needed to establish the efficacy of T4 when it is delivered directly into the hens in precisely measured doses. The photoperiod was 17 hours of light per day (0330 hours to 2030 hours).

[3] = system: growing cockerel and pullet chickens; conditions: 10 mg/kg dietary thyroid hormone; cited from earlier work
[4] = system: 96-week old broiler breeder cockerels; conditions: 2 or 5 ppm T4 in diet for 4 weeks; cited from earlier work
Bovans caged laying hens = assay: Experiment 6: molting of caged laying hens with dietary L-thyroxine or TIC plus MgO or sodium salicylate; type: in vivo, chicken; conditions: 10 hours of light daily
Description: Experiment 6. Molting of Caged Laying with Dietary L-Thyroxine or Thyroactive Iodinated Casein Plus MgO or Sodium Salicylate.
In Experiment 6, a conventional feed withdrawal molting procedure was compared with 5 dietary thyroxine treatments. Body weight loss after 9 days was greater, days to 0% egg production (9 days) shorter, ovary plus oviduct weight numerically lighter on day 9 of treatment, but eggs collected on day 4 of treatment had thinner shells, in the feed withdrawal group.

fine-wool Merino wethers = conditions: 60 mg thyroxine implants in summer and autumn; cited from earlier work
[5] = 40 mg T4/kg diet, listed as L-T

## N[C@@H](Cc1cc(I)c(Oc2cc(I)c(O)c(I)c2)c(I)c1)C(=O)O [L-thyroxine, 3,5,3′,5′-tetraiodo-L-thyronine]
[1]; 20 mg T4/kg groups, either chamber
  Hens molted: None of the hens
[1]; 20 mg T4/kg, 17 hr light
  Time to significantly reduced egg production: ≤ 8 days
[1]; 20 mg/kg of feed 12 d from day 13, 8 hr light, Day 12 (pre-molt)
  Body weight (BW): 1492 g
[1]; 20 mg/kg of feed 12 d from day 13, 8 hr light, Day 22
  Body weight change (% BWC): −12.8%
[1]; 20 mg/kg of feed 12 d from day 13, 8 hr light, Day 22 (end of molt)
  Body weight (BW): 1301 g
[1]; 20 mg/kg of feed 12 d from day 13, 8 hr light, Day 34
  Body weight change (% BWC): −10.7%
[1]; 20 mg/kg of feed 12 d from day 13, 8 hr light, Day 34 (final)
  Body weight (BW): 1332 g
[1]; 20 mg/kg of feed 12 d from day 13, 17 hr light, Day 12 (pre-molt)
  Body weight (BW): 1572 g
[1]; 20 mg/kg of feed 12 d from day 13, 17 hr light, Day 22
  Body weight change (% BWC): −13.3%
[1]; 20 mg/kg of feed 12 d from day 13, 17 hr light, Day 22 (end of molt)
  Body weight (BW): 1363 g
[1]; 20 mg/kg of feed 12 d from day 13, 17 hr light, Day 34
  Body weight change (% BWC): −7.6%
[1]; 20 mg/kg of feed 12 d from day 13, 17 hr light, Day 34 (final)
  Body weight (BW): 1453 g
[1]; 20 mg/kg of feed, 8 hr light
  Ovary Weight per hen: 7.91 g
  Oviduct Weight per hen: 18.64 g
[1]; 20 mg/kg of feed, 17 hr light
  Ovary Weight per hen: 31.41 g
  Oviduct Weight per hen: 43.81 g
[1]; 40 mg T4/kg, 8 hr light, 7/12
  Hens molted fully: 58%
[1]; 40 mg T4/kg, 17 hr light
  Hens molted fully: 100%
  Time to significantly reduced egg production: ≤ 6 days
[1]; 40 mg/kg of feed 12 d from day 13, 8 hr light, Day 12 (pre-molt)
  Body weight (BW): 1488 g
[1]; 40 mg/kg of feed 12 d from day 13, 8 hr light, Day 22
  Body weight change (% BWC): −17.9%
[1]; 40 mg/kg of feed 12 d from day 13, 8 hr light, Day 22 (end of molt)
  Body weight (BW): 1222 g
[1]; 40 mg/kg of feed 12 d from day 13, 8 hr light, Day 34
  Body weight change (% BWC): −12.6%
[1]; 40 mg/kg of feed 12 d from day 13, 8 hr light, Day 34 (final)
  Body weight (BW): 1300 g
[1]; 40 mg/kg of feed 12 d from day 13, 17 hr light, Day 12 (pre-molt)
  Body weight (BW): 1436 g
[1]; 40 mg/kg of feed 12 d from day 13, 17 hr light, Day 22
  Body weight change (% BWC): −18.0%
[1]; 40 mg/kg of feed 12 d from day 13, 17 hr light, Day 22 (end of molt)
  Body weight (BW): 1178 g
[1]; 40 mg/kg of feed 12 d from day 13, 17 hr light, Day 34
  Body weight change (% BWC): −14.8%
[1]; 40 mg/kg of feed 12 d from day 13, 17 hr light, Day 34 (final)
  Body weight (BW): 1224 g
[1]; 40 mg/kg of feed, 8 hr light
  Ovary Weight per hen: 9.32 g
  Oviduct Weight per hen: 14.25 g
[1]; 40 mg/kg of feed, 17 hr light
  Ovary Weight per hen: 3.82 g
  Oviduct Weight per hen: 8.03 g
[1]; 20 and 40 mg T4/kg, 12 days
  Mortality: No mortality occurred
[1]; 20 and 40 mg T4/kg, 8 hr light
  Time to significantly reduced egg production: ≤ 4 days
Laying turkeys
  Time out of egg production after treatment: 4 weeks
[2]; 250 μg T4 per kg body weight for 12 consecutive days
  Egg production: did not reduce egg production significantly
[2]; 500 μg T4 Group
  Onset of molt in all cages after the start of T4 injection: 11 days
[2]; 1,000 μg T4 Group
  Day of T4 injection by which egg production ceased entirely: ≤ 8 days
  Onset of molt in all cages after the start of T4 injection: 9 days
[2]; 1,000 μg T4 Group, 2 of 8 hens, 9th and 10th day after start of injection
  Mortality: 25%
[2]; 2,000 μg T4 per kg body weight for 3 consecutive days
  Time to complete cessation of egg production: ≤ 6 days
[2]; 4,000 μg T4 Group, 1 of 4 hens, 8th day after start of injection
  Mortality: 25%
[2]; 4,000 μg T4 per kg body weight for 3 consecutive days
  Time to complete cessation of egg production: ≤ 4 days
[2]; 250 mcg/kg body wt i.m. 12 d
  End of Injections Body Weight: 1300 g
  Initial Body Weight: 1495 g
[2]; 250 mcg/kg body wt i.m. 12 d from day 15, day 14
  Hen-day egg production: 93.8%
[2]; 250 mcg/kg body wt i.m. 12 d from day 15, day 16
  Hen-day egg production: 87.5%
[2]; 250 mcg/kg body wt i.m. 12 d from day 15, day 18
  Hen-day egg production: 68.8%
[2]; 250 mcg/kg body wt i.m. 12 d from day 15, day 20
  Hen-day egg production: 56.3%
[2]; 250 mcg/kg body wt i.m. 12 d from day 15, day 22
  Hen-day egg production: 25.0%
[2]; 250 mcg/kg body wt i.m. 12 d from day 15, day 24
  Hen-day egg production: 31.3%
[2]; 250 mcg/kg body wt i.m. 12 d from day 15, day 26
  Hen-day egg production: 37.5%
[2]; 250 mcg/kg body wt i.m. 12 d from day 15, day 28
  Hen-day egg production: 31.3%
[2]; 250 mcg/kg body wt i.m. 12 d from day 15, day 30
  Hen-day egg production: 37.5%
[2]; 500 and 1,000 μg T4 Groups
  Time after start of injecting until egg production significantly reduced: 4 days
[2]; 500 mcg/kg body wt i.m. 8 d
  End of Injections Body Weight: 1299 g
  Initial Body Weight: 1472 g
[2]; 500 mcg/kg body wt i.m. 8 d from day 15, day 14
  Hen-day egg production: 87.5%
[2]; 500 mcg/kg body wt i.m. 8 d from day 15, day 16
  Hen-day egg production: 93.8%
[2]; 500 mcg/kg body wt i.m. 8 d from day 15, day 18
  Hen-day egg production: 31.3%
[2]; 500 mcg/kg body wt i.m. 8 d from day 15, day 20
  Hen-day egg production: 31.3%
[2]; 500 mcg/kg body wt i.m. 8 d from day 15, day 22
  Hen-day egg production: 6.3%
[2]; 500 mcg/kg body wt i.m. 8 d from day 15, day 24
  Hen-day egg production: 6.3%
[2]; 500 mcg/kg body wt i.m. 8 d from day 15, day 26
  Hen-day egg production: 6.3%
[2]; 500 mcg/kg body wt i.m. 8 d from day 15, day 28
  Hen-day egg production: 6.3%
[2]; 500 mcg/kg body wt i.m. 8 d from day 15, day 30
  Hen-day egg production: 25.0%
[2]; 1,000 and 4,000 μg T4 Groups
  Size of regressed reproductive tracts at necropsy: ≤ 50 % normal size
[2]; 1,000 mcg/kg body wt i.m. 8 d
  End of Injections Body Weight: 1167 g
  Initial Body Weight: 1513 g
[2]; 1,000 mcg/kg body wt i.m. 8 d from day 15, day 14
  Hen-day egg production: 81.3%
[2]; 1,000 mcg/kg body wt i.m. 8 d from day 15, day 16
  Hen-day egg production: 68.8%
[2]; 1,000 mcg/kg body wt i.m. 8 d from day 15, day 18
  Hen-day egg production: 31.3%
[2]; 1,000 mcg/kg body wt i.m. 8 d from day 15, day 20
  Hen-day egg production: 12.5%
[2]; 1,000 mcg/kg body wt i.m. 8 d from day 15, day 22
  Hen-day egg production: 0.0%
[2]; 1,000 mcg/kg body wt i.m. 8 d from day 15, day 24
  Hen-day egg production: 0.0%
[2]; 1,000 mcg/kg body wt i.m. 8 d from day 15, day 26
  Hen-day egg production: 0.0%
[2]; 1,000 mcg/kg body wt i.m. 8 d from day 15, day 28
  Hen-day egg production: 0.0%
[2]; 1,000 mcg/kg body wt i.m. 8 d from day 15, day 30
  Hen-day egg production: 0.0%
[2]; 2,000 and 4,000 μg T4 Groups
  Onset of molt in all cages after the start of injection: 9 days
[2]; 2,000 mcg/kg body wt i.m. 3 d
  End of Injections Body Weight: 1234 g
  Initial Body Weight: 1510 g
[2]; 2,000 mcg/kg body wt i.m. 3 d from day 15, day 14
  Hen-day egg production: 62.5%
[2]; 2,000 mcg/kg body wt i.m. 3 d from day 15, day 16
  Hen-day egg production: 87.5%
[2]; 2,000 mcg/kg body wt i.m. 3 d from day 15, day 18
  Hen-day egg production: 87.5%
[2]; 2,000 mcg/kg body wt i.m. 3 d from day 15, day 20
  Hen-day egg production: 75.0%
[2]; 2,000 mcg/kg body wt i.m. 3 d from day 15, day 22
  Hen-day egg production: 50.0%
[2]; 2,000 mcg/kg body wt i.m. 3 d from day 15, day 24
  Hen-day egg production: 12.5%
[2]; 2,000 mcg/kg body wt i.m. 3 d from day 15, day 26
  Hen-day egg production: 0.0%
[2]; 2,000 mcg/kg body wt i.m. 3 d from day 15, day 28
  Hen-day egg production: 0.0%
[2]; 2,000 mcg/kg body wt i.m. 3 d from day 15, day 30
  Hen-day egg production: 0.0%
[2]; 4,000 mcg/kg body wt i.m. 3 d
  End of Injections Body Weight: 1165 g
  Initial Body Weight: 1387 g
[2]; 4,000 mcg/kg body wt i.m. 3 d from day 15, day 14
  Hen-day egg production: 62.5%
[2]; 4,000 mcg/kg body wt i.m. 3 d from day 15, day 16
  Hen-day egg production: 87.5%
[2]; 4,000 mcg/kg body wt i.m. 3 d from day 15, day 18
  Hen-day egg production: 100.0%
[2]; 4,000 mcg/kg body wt i.m. 3 d from day 15, day 20
  Hen-day egg production: 87.5%
[2]; 4,000 mcg/kg body wt i.m. 3 d from day 15, day 22
  Hen-day egg production: 25.0%
[2]; 4,000 mcg/kg body wt i.m. 3 d from day 15, day 24
  Hen-day egg production: 0.0%
[2]; 4,000 mcg/kg body wt i.m. 3 d from day 15, day 26
  Hen-day egg production: 0.0%
[2]; 4,000 mcg/kg body wt i.m. 3 d from day 15, day 28
  Hen-day egg production: 0.0%
[2]; 4,000 mcg/kg body wt i.m. 3 d from day 15, day 30
  Hen-day egg production: 0.0%
[3]
  Reduction in body weight gain compared to controls: 28.18%
[4]
  Week at which daily sperm output returned to control values: 11 week
  Week at which plasma testosterone levels returned to control values: 5 week
Bovans caged laying hens; 20 mg T4/kg diet
  2&4 Jun. 05 Egg Weight: 58.68 g
  4 Jun. 05 Shell + Membrane: 0.466^a mm
  9 Jun. 05 (9th d Trt) Body Wt Change: −0.50^b lb
  9 Jun. 05 Ovary + Oviduct: 4.59 % B Wt
  25 May 05 Initial Body Wt: 3.49 lb
  Days to 0% Egg Prod. (by Replicate): 12.0^a Days
Bovans caged laying hens; 40 mg T4/kg diet
  2&4 Jun. 05 Egg Weight: 60.17 g
  4 Jun. 05 Shell + Membrane: 0.446^a mm
  9 Jun. 05 (9th d Trt) Body Wt Change: −0.54 lb
  9 Jun. 05 Ovary + Oviduct: 3.19 % B Wt
  25 May 05 Initial Body Wt: 3.57 lb
  Days to 0% Egg Prod. (by Replicate): 11 days
Bovans caged laying hens; [5]
  9 Jun. 05 (9th d Trt) Body Wt Change: −0.60^b lb
  Days to 0% Egg Prod. (by Replicate): 11.0^a Days
fine-wool Merino wethers
  Increase in annual fleece weight: 34%
